Results taken from patent US10683553B2, “Method for determining sensitivity to simultaneous inhibitor against PARP and Tankyrase” (THE ASAN FOUNDATION, priority 2015, dated 2020).

System: HCT116 human colon cancer cell line
Experiment: DNA damage by r-H2AX immunocytochemistry
Type: cell-based
Details: HCT116 (p53 normal type); 50 μM, 48 hours
Text: In order to analyze the degree of DNA damage of Compound A, which is a novel PARP/Tankyrase simultaneous inhibitor when the p53 gene is a normal type, the present inventors treated a novel PARP/Tankyrase simultaneous inhibitor, Compound A, and the competitive drug PARP inhibitor, olaparib, in the HCT116 human colon cancer cell line in which the p53 gene is a normal type, and then the DNA damage was confirmed by immunochemical method as the expression level of r-H2AX. The conditions and methods of the experiment were as follows: HCT116 human colon cancer cell line in which the p53 gene is a normal type was cultured in RPMI1640 (10% FBS, 1% penicillin/streptomycin) and cultured in a 60 mm plate at 1×10^5 per well for 24 hours at 37° C. Compound A, which is a novel PARP/Tankyrase simultaneous inhibitor, and olaparib, which is a competitive drug PARP inhibitor, were treated with 50 μM each and were cultured for 48 hours. […] The r-H2AX antibody was diluted at a ratio of 1:100 in 1% BSA, reacted overnight at 4° C., washed three times for 10 minutes with TBS-T buffer, and the secondary antibody (alexa Fluor®488 fitc) was diluted at a ratio of 1:100 in 1% BSA, reacted at room temperature for 2 hours, and then washed with TBS-T A buffer three times for 10 minutes, and stained with DAPI (4′,6-diamidino-2-phenylindole) to confirm the expression level of r-H2AX under a fluorescence microscope.

Structure (SMILES): CCOc1cc(CN(C)C)cc2[nH]c(=O)c3c(c12)NCCC3 [Compound A, 8-[(dimethylamino)methyl]-10-ethoxy-1,2,3,4-tetrahydrobenzo[h][1,6]naphthyridin-5(6H)-one]
- DNA damage: expression level of r-H2AX (immunocytochemistry): higher expression of r-H2AX than the group treated with olaparib
